How the values were obtained:
[1] = compound: COc1cccc(OCCCN)c1-c1cc(Nc2cnc(C#N)cn2)n[nH]1
Cisplatin = compound: N.N.Cl[Pt]Cl [Cisplatin]
Bleomycin = compound: CC1=C(N=C(N=C1N)[C@H](CC(=O)N)NC[C@@H](C(=O)N)N)C(=O)N[C@@H]([C@H](C2=CN=CN2)OC3C(C(C(C(O3)CO)O)O)OC4C(C(C(C(O4)CO)O)OC(=O)N)O)C(=O)N[C@H](C)[C@H]([C@H](C)C(=O)N[C@@H]([C@@H](C)O)C(=O)NCCC5=NC(=CS5)C6=NC(=CS6)C(=O)NCCC[S+](C)C)O [Bleomycin]; settings: main component drawn
FMF-03-145-1 = compound: CCC(=O)Nc1ccc(C(=O)Nc2ccc(Nc3ncc4c(n3)N(C)c3ccc(C)cc3C(=O)N4C)cc2)cc1 [FMF-03-145-1]
Etoposide = compound: COc1cc([C@@H]2c3cc4c(cc3[C@@H](O[C@@H]3O[C@@H]5CO[C@@H](C)O[C@H]5[C@H](O)[C@H]3O)[C@H]3COC(=O)[C@H]23)OCO4)cc(OC)c1O [Etoposide]
Topotecan = compound: CC[C@@]1(O)C(=O)OCc2c1cc1n(c2=O)Cc2cc3c(CN(C)C)c(O)ccc3nc2-1 [Topotecan]
Everolimus = compound: CO[C@H]1C[C@@H]2CC[C@@H](C)[C@@](O)(O2)C(=O)C(=O)N2CCCC[C@H]2C(=O)O[C@H]([C@H](C)C[C@@H]2CC[C@@H](OCCO)[C@H](OC)C2)CC(=O)[C@H](C)/C=C(\C)[C@@H](O)[C@@H](OC)C(=O)[C@H](C)C[C@H](C)/C=C/C=C/C=C/1C [Everolimus]
YKL-5-124 [2] = compound: T1, C=CC(=O)Nc1ccc(C(=O)Nc2[nH]nc3c2CN(C(=O)N[C@H](CN(C)C)c2ccccc2)C3(C)C)cc1 [YKL-5-124]; experiment: increase in dead-cell fraction, 72 h; higher = more death;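 also: breast cancer cell lines in 384-well plates, stained with Hoechst plus LIVE/DEAD far red dye and imaged, cells above an LDR intensity threshold counted dead, Hoechst-negative corpses included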
THZ531 = compound: CN(C)C/C=C/C(=O)Nc1ccc(C(=O)N2CCC[C@@H](Nc3ncc(Cl)c(-c4c[nH]c5ccccc45)n3)C2)cc1 [THZ531]; experiment: as above
YKL-5-124 [3] = compound: T1, YKL-5-124
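For GR50, 72 h in this document: breast cancer and non-malignant breast epithelial cell lines, Deep Dye Drop or Dye Drop imaging, nine half-log doses, GR normalized to time-zero plates and DMSO-only controls.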

Cell Line	GR50, 72 h [1]	GR50, 72 h (Cisplatin)	GR50, 72 h (Bleomycin)	GR50, 72 h (FMF-03-145-1)	GR50, 72 h (Etoposide)	GR50, 72 h (Topotecan)	GR50, 72 h (Everolimus)	increase in dead-cell fraction (YKL-5-124 [2]; 0.001 µM)	increase in dead-cell fraction (YKL-5-124 [2]; 0.003162 µM)	increase in dead-cell fraction (YKL-5-124 [2]; 0.01 µM)	increase in dead-cell fraction (YKL-5-124 [2]; 0.03162 µM)	increase in dead-cell fraction (YKL-5-124 [2]; 0.1 µM)	increase in dead-cell fraction (YKL-5-124 [2]; 0.3162 µM)	increase in dead-cell fraction (YKL-5-124 [2]; 1 µM)	increase in dead-cell fraction (YKL-5-124 [2]; 3.162 µM)	increase in dead-cell fraction (YKL-5-124 [2]; 10 µM)	increase in dead-cell fraction (THZ531; 0.0001 µM)	increase in dead-cell fraction (THZ531; 0.0003162 µM)	increase in dead-cell fraction (THZ531; 0.001 µM)	increase in dead-cell fraction (THZ531; 0.003162 µM)	increase in dead-cell fraction (THZ531; 0.01 µM)	increase in dead-cell fraction (THZ531; 0.03162 µM)	increase in dead-cell fraction (THZ531; 0.1 µM)	increase in dead-cell fraction (THZ531; 0.3162 µM)	increase in dead-cell fraction (THZ531; 1 µM)	GR50, 72 h (YKL-5-124 [3])
CAL851	0.000351 µM	1.03 µM	0.453 µM	0.00449 µM	0.416 µM	0.0158 µM	0.00155 µM	0.0613	0.0965	0.0961	0.1	0.12	0.15	0.096	0.12	0.402	0.0002	0.0044	-0.0008	0.0011	0.0061	0.0125	0.0297	0.048	0.0747	
SUM149	0.000514 µM	0.571 µM	0.039 µM	0.00558 µM	0.127 µM	0.00569 µM	> 10 µM	0.0758	0.1	0.103	0.0843	0.124	0.124	0.0859	0.172	0.199	0.0045	-0.0031	0	-0.0086	-0.0054	0.0002	0.0001	0.0691	0.58	< 0.001 µM
ZR751	0.0012 µM			0.00573 µM			< 0.001 µM	0.0021	0.0092	0.0198	0.0185	0.014	0.0125	0.0157	0.0241	0.0249	-0.0027	0.0028	-0.0004	0.0013	-0.0036	0.0009	0.0019	0.0013	0.151	0.0019 µM
PDX1258	0.000103 µM	2.56 µM	0.783 µM		0.317 µM	0.0135 µM	> 10 µM	0.019	0.0602	0.0734	0.107	0.033	0.165	0.153	0.153	0.298	0.0134	-0.0091	-0.0052	-0.0071	-0.0127	0.0327	0.239	0.246	0.27	0.00166 µM
MCF12A	0.000725 µM			0.00914 µM			> 10 µM	0.0376	0.0894	0.136	0.155	0.184	0.177	0.165	0.164	0.252	0.0108	0.0023	-0.0009	0.0027	0.0039	0.0089	0.0009	0.0073	0.332	0.0013 µM
SKBR3	0.000441 µM	5.11 µM	1.05 µM	0.00508 µM	0.398 µM	0.0165 µM	< 0.001 µM	0.0064	0.0231	0.0496	0.0434	0.0537	0.0626	0.0336	0.0844	0.316	0.0012	0.0021	0.0015	-0.0089	-0.0005	0.053	0.155	0.175	0.338	< 0.001 µM
UACC812				0.00186 µM				0.0021	0.0107	0.0182	0.0223	0.0246	0.0283	0.0151	0.027	0.0485	0.0045	0.0009	0.0012	-0.0009	0.0008	-0.0001	-0.0004	0.0004	0.0127	< 0.001 µM
EFM19				0.00827 µM			< 0.001 µM	0.0076	0.0133	0.0465	0.0193	0.0243	0.0368	0.0396	0.0167	0.0439	-0.0038	-0.0067	-0.005	-0.0057	-0.0007	0.0062	0.0006	-0.0035	0.527	< 0.001 µM
MCF10A (GM)	0.0122 µM			0.00563 µM				0.22	0.329	0.363	0.249	0.226	0.293	0.263	0.218	0.391	0.0026	0.0015	-0.0008	-0.0019	0.0006	0.0017	0.0028	0.0137	0.62	< 0.001 µM
HCC1143	0.000582 µM	0.837 µM	0.0482 µM	0.00583 µM	0.463 µM	0.00941 µM	> 10 µM	0.0369	0.0319	0.0518	0.0428	0.0477	0.0836	0.0896	0.0668	0.121	0.0046	0.0047	0.0003	0.0002	-0.0009	0.0121	0.0256	0.117	0.134	< 0.001 µM
BT549	2.27e-05 µM	1.02 µM	0.18 µM		0.181 µM	0.00847 µM	> 10 µM	0.0189	0.0362	0.097	0.158	0.169	0.169	0.196	0.228	0.614	0	0	0.0005	0.0003	-0.0022	0.0026	0.0062	0.0485	0.365	0.00293 µM
HCC1937	0.000607 µM	0.777 µM	0.187 µM	0.00546 µM	0.355 µM	0.0155 µM	> 10 µM	0.004	0.0243	0.0426	0.0331	0.0403	0.0391	0.0843	0.0582	0.0895	0.0017	0.0017	0.0043	-0.0008	-0.0084	-0.0082	0.0051	0.0511	0.0969	0.00225 µM
CAL51	0.000588 µM	2.1 µM	0.169 µM	0.00666 µM	0.24 µM	0.0191 µM	> 10 µM	0.0123	0.0229	0.0534	0.0508	0.0599	0.0693	0.0723	0.134	0.192	0.0035	0.0008	0.0008	-0.0007	-0.0017	0.0021	0.0037	0.019	0.0391	0.00889 µM

— the supplement of paper PMC9663587
